From article PMC7912796, “Design, Synthesis, Anticancer Activity, and Solid Lipid Nanoparticle Formulation of Indole- and Benzimidazole-Based Compounds as Pro-Apoptotic Agents Targeting Bcl-2 Protein” (Pharmaceuticals, 2021)

Legend:
Type in all cases: cell-based, human
[1] = system: MDA-MB-231/breast cancer cell line; test: Apoptosis rate analysis, Annexin-V/FACS; details: 13 µM, 48 h
Excerpt: Using flow cytometry, apoptosis rate analysis was proceeded through staining the cell surface-translocating phosphatidylserine with Annexin-V fluorescent conjugate, the calcium-dependent phospholipid binding protein [32]. However, cell cycle analysis was achieved using propidium iodine fluorescent dye to stoichiometrically stain cell DNA contents allowing quantitation and identification of all cell phase rates; G0-G1, S, G2/M, and pre-G1 [33, 34]. […] For identifying the mode of cell death promoted by 8b within MDA-MB-231/breast cancer cells, apoptosis rate analysis was performed following 48 h exposure time. […] Moreover, the average proportion of Annexin-V stained positive cells (total apoptotic cells) elevated from 1.72% within untreated cells to 18.93% in treated ones (p < 0.001). […] The above provided findings are supported by the previous cell cycle analysis confirming the potentiality of 8b as promising anticancer agent.
Apoptotic assay and cell cycle analysis were proceeded according to previous literatures. In brief, cells were planted in 1.0 × 10^6 cells/flask density for 24 h. Subsequently, 8b was added at its IC50 value and incubated for 48 h. Following incubation, MDA-MB-231 cells were trypsinized, harvested, and fixed according to information cited within Annexin® V-FITC Detection Kit (Cat.#: K101-25, BioVision^TM, Milpitas, CA, USA), for quantifying cell’s DNA contents being treated with 8b relative to control sample using propidium iodide stain (Cat.#: ab139418; Abcam^TM, Cambridge, MA, USA). Finally, flow cytometry analysis was done using BD-FACSCalibur® cell analyzer platform (Becton Dickinson-Biosciences-SG^TM, Singapore, Thailand) to estimate which cell cycle phase, the treated cells would be arrested in, as well as computing the percentage of apoptotic cells.

BAX gene = test: RT-PCR apoptotic gene expression; details: 13 μM, 48 h, MDA-MB-231, vs negative control
Procedure: (§1) Dissection of the compound’s proapoptotic activity was proceeded through gene expression analysis for key genes, controlling apoptosis pathway, as well as protein level determination. Following 8b treatment for 48 h, alterations within MDA-MB-231/breast cancer cell expression of Bcl-2, Bax, caspase-3, -8, and -9 genes, as well as cytochrome c and class-III β-tubulin proteins levels were determined using real-time polymerase chain reaction (RT-PCR) or ELISA technique, respectively. Typically, Bcl-2, Bax, caspases, and cytochrome c proteins contributes within the regulation of apoptotic signaling. Acting as apoptotic activator (Bax) or inhibitor (Bcl-2), the Bcl-2 family proteins play their significant role in apoptosis. The caspases family are cysteine proteases being classified as either executioners; caspase-3, -6, or -7 or initiators; caspase-8 and -9 [36]. Regrading caspase-8, its activation is proceeded through extrinsic death-receptor dependent apoptotic pathway, while, caspase-9 activation is within the event of intrinsic mitochondrial cytochrome c leakage. Additionally, participation of activated caspase-3 is to be essential for […] activation. Class-III β-tubulin are pure prognostic biomarker within cancer patients being associated with aggressive phenotypic/drug-resistant cancers and part of complicated pro-survival molecular pathway, being triggered via poor nutrient supply and hypoxia.
(§2) Quantitative Real-time PCR was operated on Rotor-Gene Q® PCR system as a reader (Cat.#: 204774; Qiagen^TM, Milan, Italy) via GenElute® RNA extraction/SIGMA PCR kit (Cat.#: REI10; Qiagen^TM, Milan, Italy)^86. Cells were treated with IC50 of 8b for 48 h and total RNA was extracted from the non-treated and treated cells. RNA purity was assessed via Nanodrop® 2000/2000c UV-Vis spectrophotometer (Thermo-Scientific^TM, Bilbao, Spain). Synthesis of cDNA was proceeded using QuantiNova® Reverse Transcription Kit (Cat.#: RTN30; Qiagen^TM, Milan, Italy) and the subsequent PCR tests were conducted via single tubes. Specific forward/reverse primer pairs were selected for investigated (Casp-3, -8, -9, BAX, and Bcl2). Obtained results were expressed within Cycle threshold (Ct) values, while relative quantitation of each measured gene was assessed based on ΔΔCt calculations as represented in Table 5 [79].

Bcl-2 gene = test: RT-PCR apoptotic gene expression; details: 13 μM, 48 h, MDA-MB-231, vs negative control
Procedure: as §1, §2

Caspase-3 gene = test: RT-PCR apoptotic gene expression; details: 13 μM, 48 h, MDA-MB-231, vs negative control
Procedure: as §1, §2

Caspase-8 gene = test: RT-PCR apoptotic gene expression; details: 13 μM, 48 h, MDA-MB-231, vs negative control
Procedure: as §1, §2

Caspase-9 gene = test: RT-PCR apoptotic gene expression; details: 13 μM, 48 h, MDA-MB-231, vs negative control
Procedure: as §1, §2

## CCCc1ccc(-c2nn(-c3ccccc3)cc2C=NNC(=O)c2cc3ccccc3[nH]2)cc1 [Compound 8b, N′-((1-phenyl-3-(4-propylphenyl)-1H-pyrazol-4-yl)methylene)-1H-indole-2-carbohydrazide]
[1]
  influence on necrosis: no influence on the necrosis
[1]; quadrant assignment assumed
  early apoptotic cell population (LR quadrant): 5.09%
  late apoptotic cell population (UR quadrant): 12.02%
  necrotic cell population (UL quadrant): 1.82%
[1]; untreated 1.72%
  Annexin-V stained positive cells (total apoptotic cells): 18.93%
BAX gene
  BAX gene expression: 3.61 folds
Bcl-2 gene
  Bcl-2 gene expression: 0.165 folds
Caspase-3 gene
  Caspase-3 gene expression: 4.28 folds
Caspase-8 gene
  Caspase-8 gene expression: 1.53 folds
Caspase-9 gene
  Caspase-9 gene expression: 7.65 folds
